Assay results: patent US20180214583A1, “PHARMACEUTICAL COMBINATION FOR THE TREATMENT OF CANCER” (BAYER PHARMA AKTIENGESELLSCHAFT, priority 2015, published 2018)

Key:
[1] = tested on: bone metastatic prostate tumors; experiment: Radium-223 with anti-PD-L1 immunotherapy in bone metastatic prostate cancer mice models; type: in vivo
Method: PD-L1 expression after Ra-223 treatment, and blocking PD-L1 combined with Ra-223 as a treatment for bone metastatic prostate cancer is examined in bone metastatic prostate cancer mice models.
The safety and efficacy of Ra-223 combined with anti-PD-L1 antibody versus Ra-223 or […] alone and radiation therapy as controls are tested. A genetically engineered mouse model (Pten/Smad4-null FVB mice, Ding et al., Nature 2011) is used. Treatments are initiated in mice with established tumors. The goal here is to evaluate treatment efficacy. At the experimental endpoint, tumor volume, metastatic burden (lung and liver) and mouse survival is measured.

[2] = single dose 250 kBq per kg body weight; cited from earlier work
[3] = tested on: diffuse large B-cell lymphoma (DLBCL); details: cited from earlier work

| Molecule | PD-L1 expression after treatment [1] | cases of grade 3 neutropenia [2] | observed adverse reactions [2] | subjects progression-free at the end of the follow-up period ([3]; DLBCL subjects after autologous stem cell transplantation, preliminary results, control group 47%) [%] | subjects alive ([3]; DLBCL subjects after autologous stem cell transplantation, preliminary results, control group 62%) [%] | effect on natural killer cells ([3]; phase II trial) |
| --- | --- | --- | --- | --- | --- | --- |
| [Cl][223Ra][Cl] [radium-223, radium-223 dichloride] | upregulates PD-L1 expression | 1/5 | diarrhea and reversible myelosuppression |  |  |  |
| CT-011: humanized IgG 1 monoclonal antibody against PD-1 |  |  |  | 70 | 82 | augments the activity of natural killer cells |
